Patent publication US20230019236A1, “PROTEIN TYROSINE PHOSPHATASE INHIBITORS AND METHODS OF USE THEREOF” (Calico Life Sciences LLC, priority 2019, published 2023)
pIC50: −log10 of the molar value.

Target: T1, His tagged full-length PTP1B protein (Homo sapiens, UniProt P18031)
T1 construct: made in house
T1 sequence (P18031 with tags, fused parts or gaps): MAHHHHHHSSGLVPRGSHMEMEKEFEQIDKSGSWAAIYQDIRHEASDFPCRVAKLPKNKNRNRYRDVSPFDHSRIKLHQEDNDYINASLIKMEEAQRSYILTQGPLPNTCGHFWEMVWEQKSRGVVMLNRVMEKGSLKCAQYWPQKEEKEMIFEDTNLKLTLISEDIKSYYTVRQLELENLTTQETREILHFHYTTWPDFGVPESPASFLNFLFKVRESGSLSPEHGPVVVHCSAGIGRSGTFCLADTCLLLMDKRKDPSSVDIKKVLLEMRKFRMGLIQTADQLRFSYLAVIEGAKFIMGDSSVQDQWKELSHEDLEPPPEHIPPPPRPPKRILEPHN
Assay: Mobility Shift Assay (MSA) used to determine potency of PTP1B inhibitors
Assay type: biochemical
Details: Table 2
Protocol: The enzymatic assay used to determine activity is a mobility shift assay using a LabChip EZ Reader by Caliper Life Sciences. The enzymatic reaction was carried out in assay buffer (50 mM HEPES pH 7.5, 1 mM EGTA, 10 mM EDTA, 0.01% Tween® 20, and 2 mM DTT). […] The enzyme (at 0.5 nM) was incubated with compound for 10 minutes at room temperature. […] The % inhibition was then used to calculate the IC50 values.

pIC50	SMILES
7.00 to 8.00	O=C1CN(c2c(O)cc3ccc(OCCF)cc3c2F)S(=O)(=O)N1 [Compound 198, 5-[1-fluoro-7-(2-fluoroethoxy)-3-hydroxynaphthalen-2-yl]-1λ^6,2,5-thiadiazolidine-1,1,3-trione]
8.00 to 9.00	CC(C)CNc1ccc2cc(O)c(N3CC(=O)NS3(=O)=O)c(F)c2c1 [Compound 201, 5-{1-fluoro-3-hydroxy-7-[(2-methylpropyl)amino]naphthalen-2-yl}-1λ^6,2,5-thiadiazolidine-1,1,3-trione]
< 7.00	N#CCOc1ccc2cc(O)c(N3CC(=O)NS3(=O)=O)c(F)c2c1 [Compound 203, {[8-fluoro-6-hydroxy-7-(1,1,4-trioxo-1λ^6,2,5-thiadiazolidin-2-yl)naphthalen-2-yl]oxy}acetonitrile]
7.00 to 8.00	COc1ccc2cc(O)c(N3CC(=O)NS3(=O)=O)c(F)c2c1F [Compound 205, 5-(1,8-difluoro-3-hydroxy-7-methoxynaphthalen-2-yl)-1λ^6,2,5-thiadiazolidine-1,1,3-trione]
8.00 to 9.00	O=C1CN(c2c(O)cc3ccc(OC4CC4)cc3c2F)S(=O)(=O)N1 [Compound 223, 5-[7-(cyclopropyloxy)-1-fluoro-3-hydroxynaphthalen-2-yl]-1λ^6,2,5-thiadiazolidine-1,1,3-trione]
< 7.00	COc1ccc(-c2ccc3cc(O)c(N4CC(=O)NS4(=O)=O)c(F)c3c2)s1 [Compound 227, 5-[1-fluoro-3-hydroxy-7-(5-methoxythiophen-2-yl)naphthalen-2-yl]-1λ^6,2,5-thiadiazolidine-1,1,3-trione]
7.00 to 8.00	N#CCc1ccc2cc(O)c(N3CC(=O)NS3(=O)=O)c(F)c2c1 [Compound 228, [8-fluoro-6-hydroxy-7-(1,1,4-trioxo-1λ^6,2,5-thiadiazolidin-2-yl)naphthalen-2-yl]acetonitrile]
7.00 to 8.00	COCc1ccc2cc(O)c(N3CC(=O)NS3(=O)=O)c(F)c2c1 [Compound 229, 5-[1-fluoro-3-hydroxy-7-(methoxymethyl)naphthalen-2-yl]-1λ^6,2,5-thiadiazolidine-1,1,3-trione]
7.00 to 8.00	COc1ccc2cc(O)c(N3CC(=O)NS3(=O)=O)c(F)c2c1Cl [Compound 234, 5-(8-chloro-1-fluoro-3-hydroxy-7-methoxynaphthalen-2-yl)-1λ^6,2,5-thiadiazolidine-1,1,3-trione]
< 7.00	O=C1CN(c2c(O)cc3ccc(C4CC4)cc3c2F)S(=O)(=O)N1 [Compound 236, 5-(7-cyclopropyl-1-fluoro-3-hydroxynaphthalen-2-yl)-1λ^6,2,5-thiadiazolidine-1,1,3-trione]
< 7.00	COc1ccc2c(Cl)c(O)c(N3CC(=O)NS3(=O)=O)c(F)c2c1 [Compound 238, 5-(4-chloro-1-fluoro-3-hydroxy-7-methoxynaphthalen-2-yl)-1λ^6,2,5-thiadiazolidine-1,1,3-trione]

More lines, now with the values behind:

SMILES	pIC50
CC(C)CCNc1ccc2cc(O)c(N3CC(=O)NS3(=O)=O)c(F)c2c1 [Compound 200, 5-{1-fluoro-3-hydroxy-7-[(3-methylbutyl)amino]naphthalen-2-yl}-1λ^6,2,5-thiadiazolidine-1,1,3-trione]	> 9.00
O=C1CN(c2c(O)cc3ccc(NCC4CC4)cc3c2F)S(=O)(=O)N1 [Compound 202, 5-{7-[(cyclopropylmethyl)amino]-1-fluoro-3-hydroxynaphthalen-2-yl}-1λ^6,2,5-thiadiazolidine-1,1,3-trione]	7.00 to 8.00
CC(C)CCOc1ccc2cc(O)c(N3CC(=O)NS3(=O)=O)c(F)c2c1 [Compound 204, 5-[1-fluoro-3-hydroxy-7-(3-methylbutoxy)naphthalen-2-yl]-1λ^6,2,5-thiadiazolidine-1,1,3-trione]	> 9.00
O=C1CN(c2c(O)cc3ccc(C4CN(S(=O)(=O)C5CC5)C4)cc3c2F)S(=O)(=O)N1 [Compound 206, 5-{7-[1-(cyclopropanesulfonyl)azetidin-3-yl]-1-fluoro-3-hydroxynaphthalen-2-yl}-1λ^6,2,5-thiadiazolidine-1,1,3-trione]	8.00 to 9.00
O=C1CN(c2c(O)cc3ccc(C4CN(C(=O)C5CC5)C4)cc3c2F)S(=O)(=O)N1 [Compound 207, 5-{7-[1-(cyclopropanecarbonyl)azetidin-3-yl]-1-fluoro-3-hydroxynaphthalen-2-yl}-1λ^6,2,5-thiadiazolidine-1,1,3-trione]	8.00 to 9.00
N#C/C=C/c1ccc2cc(O)c(N3CC(=O)NS3(=O)=O)c(F)c2c1 [Compound 208, (2E)-3-[8-fluoro-6-hydroxy-7-(1,1,4-trioxo-1λ^6,2,5-thiadiazolidin-2-yl)naphthalen-2-yl]prop-2-enenitrile]	< 7.00
O=C1CN(c2c(O)cc3ccc(CCC4CC4)cc3c2F)S(=O)(=O)N1 [Compound 209, 5-[7-(2-cyclopropylethyl)-1-fluoro-3-hydroxynaphthalen-2-yl]-1λ^6,2,5-thiadiazolidine-1,1,3-trione]	7.00 to 8.00
O=C1CN(c2c(O)cc3ccc(OCCC4CC4)cc3c2F)S(=O)(=O)N1 [Compound 211, 5-[7-(2-cyclopropylethoxy)-1-fluoro-3-hydroxynaphthalen-2-yl]-1λ^6,2,5-thiadiazolidine-1,1,3-trione]	> 9.00
O=C1CN(c2c(O)cc3ccc(OCCOCC4CC4)cc3c2F)S(=O)(=O)N1 [Compound 212, 5-{7-[2-(cyclopropylmethoxy)ethoxy]-1-fluoro-3-hydroxynaphthalen-2-yl}-1λ^6,2,5-thiadiazolidine-1,1,3-trione]	8.00 to 9.00
O=C1CN(c2c(O)cc3ccc(OCCOC4CCC4)cc3c2F)S(=O)(=O)N1 [Compound 214, 5-{7-[2-(cyclobutyloxy)ethoxy]-1-fluoro-3-hydroxynaphthalen-2-yl}-1λ^6,2,5-thiadiazolidine-1,1,3-trione]	8.00 to 9.00
CC(C)OCCOc1ccc2cc(O)c(N3CC(=O)NS3(=O)=O)c(F)c2c1 [Compound 215, 5-(1-fluoro-3-hydroxy-7-{2-[(propan-2-yl)oxy]ethoxy}naphthalen-2-yl)-1λ^6,2,5-thiadiazolidine-1,1,3-trione]	8.00 to 9.00
CCOCCCOc1ccc2cc(O)c(N3CC(=O)NS3(=O)=O)c(F)c2c1 [Compound 216, 5-[7-(3-ethoxypropoxy)-1-fluoro-3-hydroxynaphthalen-2-yl]-1λ^6,2,5-thiadiazolidine-1,1,3-trione]	8.00 to 9.00
CC(C)(C)OCCOc1ccc2cc(O)c(N3CC(=O)NS3(=O)=O)c(F)c2c1 [Compound 217, 5-[7-(2-tert-butoxyethoxy)-1-fluoro-3-hydroxynaphthalen-2-yl]-1λ^6,2,5-thiadiazolidine-1,1,3-trione]	8.00 to 9.00
CC(C)CCCc1ccc2cc(O)c(N3CC(=O)NS3(=O)=O)c(F)c2c1 [Compound 219, 5-[1-fluoro-3-hydroxy-7-(4-methylpentyl)naphthalen-2-yl]-1λ^6,2,5-thiadiazolidine-1,1,3-trione]	7.00 to 8.00
O=C1CN(c2c(O)cc3ccc(NCCC4CC4)cc3c2F)S(=O)(=O)N1 [Compound 224, 5-{7-[(2-cyclopropylethyl)amino]-1-fluoro-3-hydroxynaphthalen-2-yl}-1λ^6,2,5-thiadiazolidine-1,1,3-trione]	8.00 to 9.00
Cc1c[nH]c(-c2ccc3cc(O)c(N4CC(=O)NS4(=O)=O)c(F)c3c2)n1 [Compound 225, 5-[1-fluoro-3-hydroxy-7-(4-methyl-1H-imidazol-2-yl)naphthalen-2-yl]-1λ^6,2,5-thiadiazolidine-1,1,3-trione]	7.00 to 8.00
O=C1CN(c2c(O)cc3ccc(C4CNC4)cc3c2F)S(=O)(=O)N1 [Compound 226, 5-[7-(azetidin-3-yl)-1-fluoro-3-hydroxynaphthalen-2-yl]-1λ^6,2,5-thiadiazolidine-1,1,3-trione]	7.00 to 8.00
CC1(COc2ccc3cc(O)c(N4CC(=O)NS4(=O)=O)c(F)c3c2)COC1 [Compound 230, 5-{1-fluoro-3-hydroxy-7-[(3-methyloxetan-3-yl)methoxy]naphthalen-2-yl}-1λ^6,2,5-thiadiazolidine-1,1,3-trione]	< 7.00
O=C1CN(c2c(O)c(Br)c3ccc(-c4ccn(S(=O)(=O)C5CC5)c4)cc3c2F)S(=O)(=O)N1 [Compound 231B, 5-{4-bromo-7-[1-(cyclopropanesulfonyl)-1H-pyrrol-3-yl]-1-fluoro-3-hydroxynaphthalen-2-yl}-1λ^6,2,5-thiadiazolidine-1,1,3-trione]	8.00 to 9.00
O=C1CN(c2c(O)cc3ccc(OCC4CC(F)(F)C4)cc3c2F)S(=O)(=O)N1 [Compound 235, 5-{7-[(3,3-difluorocyclobutyl)methoxy]-1-fluoro-3-hydroxynaphthalen-2-yl}-1λ^6,2,5-thiadiazolidine-1,1,3-trione]	> 9.00
O=C1CN(c2c(O)cc3ccc(C4=CCN(C(=O)C5CC5)C4)cc3c2F)S(=O)(=O)N1 [Compound 237, 5-{7-[1-(cyclopropanecarbonyl)-2,5-dihydro-1H-pyrrol-3-yl]-1-fluoro-3-hydroxynaphthalen-2-yl}-1λ^6,2,5-thiadiazolidine-1,1,3-trione]	> 9.00
O=C1CN(c2c(O)cc3ccc(/C=C/C4CC4)cc3c2F)S(=O)(=O)N1 [Compound 239, 5-{7-[(E)-2-cyclopropylethenyl]-1-fluoro-3-hydroxynaphthalen-2-yl}-1λ^6,2,5-thiadiazolidine-1,1,3-trione]	7.00 to 8.00
CC(C)C/C=C/c1ccc2cc(O)c(N3CC(=O)NS3(=O)=O)c(F)c2c1 [Compound 240, 5-{1-fluoro-3-hydroxy-7-[(1E)-4-methylpent-1-en-1-yl]naphthalen-2-yl}-1λ^6,2,5-thiadiazolidine-1,1,3-trione]	8.00 to 9.00
